What was measured:
[1] = system: Klebsiella pneumoniae (DSM 30104); assay: MIC determination by broth dilution (CLSI M07), 96-well plates; format: cell-based; conditions: K. pneumoniae; range tested: Comp. 1 100-0.05 g/L, D-mannose 65-0.03 g/L; 24 h
Procedure: (§1) The antimicrobial activity of the product Comp. 1 in Example 10 was tested in vitro according to method CLSI M07 "Methods for dilution Antimicrobial susceptibility tests for bacteria that grow aerobically".
(§2) For this purpose, the MIC (Minimum Inhibitory Concentration) values were determined with respect to the main microorganisms responsible for urinary tract infections.
(§3) More specifically, the microorganisms utilised were: Escherichia coli (DSM 1576), Klebsiella pneumoniae (DSM 30104), and Enterococcus faecalis(DSM 20477).
(§4) For each experiment conducted, the bacteria stated above were revived from a cell bank stored at -80°C. […]
(§5) The assay to determine the MIC was conducted in 96-well plates testing 12 concentrations (serial dilutions) of each sample. 200 µL of the sample, prepared at a concentration of 2x with respect to the maximum concentration being tested, was dispensed into the first well and 100 µL medium was added to the subsequent wells, performing serial dilutions of 1:2 up to 12th well. Finally, 100 µL of each microorganism at a concentration of 10^5 was inoculated into each well.
(§6) Two antibiotics were used as controls: Fosfomycin (Sigma) and Ceftriaxone (Sigma) at different final concentrations based on the microorganism utilised; both the antibiotics were dissolved in sterile water and then filtered with 0.22 µm filters.
(§7) Growth was tested and the sterility of the medium and of the product was tested. The antimicrobial activity of the D-mannose was also assessed individually. The plates thus prepared were incubated at 37°C for 24h and the results were then observed (Figure 1). The final concentrations tested for each product analysed are stated in Table 2.

[2] = system: Escherichia coli (DSM 1576); assay: as above; format: cell-based; conditions: E. coli; range tested: Comp. 1 100-0.05 g/L, D-mannose 65-0.03 g/L; 24 h
Procedure: as §1, §2, §3, §4, §5, §6, §7

Escherichia coli = assay: MBIC, comparison with D-mannose, crystal violet staining; format: cell-based
Procedure: (§8) To determine the MBIC with the product Comp. 1 in Example 10 with respect to the D-mannose, 48-well plates were utilised. 200 µL of the product Comp. 1, prepared at a concentration of 2x with respect to the maximum concentration being tested, was dispensed into the first well and […] was added to the subsequent wells, performing serial dilutions of 1:2 up to the 8th well. Finally, 200 µL of each microorganism, at a concentration of 10^5, was inoculated into each well. The biofilm inhibition activity of the D-mannose at the same concentration as that present in the product Comp. 1 was also assessed. The multiwell plates were incubated at 37°C for 24 hours and then the supernatant present was removed, together with the planktonic bacteria not attached to the plate. The biofilm was then washed 3 times with PBS and subsequently the cells were fixed by means of incubation at 60°C for 2 hours, before being stained with crystal violet. 100 µL crystal violet dissolved in deionised water was dispensed into each well and, after 5 minutes of incubation at room temperature, each well was finally washed three times with PBS 1x. The biofilm inhibition activity was viewed by microscopic observation under stereomicroscope and optical microscope using the phase-contrast method. The final concentrations tested for each compound are stated in Table 6. Table 6 [table]

Klebsiella pneumoniae = assay: as above; format: cell-based
Procedure: as §8

Enterococcus faecium [3] = assay: as above; format: cell-based
Procedure: as §8

Enterococcus faecium [4] = assay: MIC determination by broth dilution (CLSI M07), 96-well plates; format: cell-based; conditions: E. faecium; range tested: Comp. 1 100-0.05 g/L, D-mannose 65-0.03 g/L; 24 h
IL-8 = assay: Anti-inflammatory activity: IL-8 production induced by TNFα, ELISA; format: cell-based, human; conditions: 0.2 µg/mL TNFα, 6 hours
Text: We assessed the capacity of the product Comp. 1 in Example 10 to inhibit or reduce the inflammatory state induced, in the same cells as in the previous example, by pro-inflammatory cytokine TNFα. This treatment led to the production of interleukin 8 (IL-8), which is cause of the "recruitment" of white blood cells to the site of inflammation. The IL-8 levels are directly proportional to the intensity of said inflammation.
The 6 product concentrations utilised in the anti-inflammatory test were chosen based on the cell viability test results. […] This is because the product per se leads to the reduction, and therefore the staining, of the MTT.
We first determined the optimal amount of TNFα to perform the test. […] The treatment was performed at 37°C and 5% CO2 for a total of 6 hours; aliquots of 200 µL of the growth medium were taken at the start of the treatment (T0) and after 1, 2, 4 and 6 hours, and then analysed by ELISA test. […]
Anti-inflammatory drug dexamethasone (dex) at a concentration of 0.1 mg/mL was utilised as a positive control. The treatment was performed for 6 hours, at the end of which as aliquots of 200 µL of the growth medium were taken and then analysed by ELISA test. […] The quantification was performed by setting up a calibration curve with different concentrations of a standard IL-8 solution, supplied with the kit. […]

Enterococcus faecium [5] = assay: MBEC test of composition versus its components, 24 h preformed biofilm, crystal violet; format: cell-based; conditions: MBEC E. faecium
Procedure: To determine the minimum biofilm eradication concentration, 48-well plates were utilised. The microorganisms were incubated for 24 h at 37°C to allow the formation of the biofilm. Once formed, the biofilms were treated with the composition in Example 1 and the respective components (as per Example 17) to eradicate the biofilm. In particular, after the formation of the biofilm, the supernatant was suctioned and replaced with solutions containing decreasing concentrations of the product. The plates thus prepared were incubated for 24 h at 37°C. At the end of the incubation time, the supernatant present in each well was removed, together with the bacteria that was not attached to the plate and following the washes with sterile deionised water the plates were incubated at 60°C for 2 hours to fix the cells before the staining with crystal violet. The crystal violet staining was performed to assess the effect of the product and of the components thereof on the removal of the biofilm. 200 µL of crystal violet dissolved in deionised water at a concentration of 0.02% was dispensed into each well and, after 5 minutes of incubation at room temperature, each well was washed three times with sterile deionised water. The biofilm eradication activity was viewed under microscopic observation.

[6] = system: Enterococcus Faecium DSM 20477; assay: MBIC test of composition versus its components, crystal violet absorbency at 595 nm; format: cell-based; conditions: E. faecium MBIC
Procedure: (§9) The composition of Example 1 was tested to assess the capacity to inhibit the formation of biofilm shown by the following microorganisms: • Klebsiella Pneumoniae DSM 30104 • Enterococcus Faecium DSM 20477
(§10) The bacteria stated above were revived from the working cell bank, stored at -80°C, for each experiment conducted.
(§11) The tests were conducted on the following formulations: • Mannose 3000 mg + NAC 600 mg + PEA 600 mg (i.e. composition Example 1) • Mannose 3000 mg + NAC 600 mg • PEA 600 mg
(§12) The three formulations were dissolved at 100 gr/l in sterile TSB/TSYEM medium and then utilised to perform the MBIC test as follows.
(§13) MBIC 48-well plates were utilised for the determination. 800 µL sample, prepared at a concentration of 2x with respect to the maximum concentration being tested, was dispensed into the first well and 400 µL medium was added to the subsequent wells, performing serial dilutions of 1:2 up to the 8th well. Finally, 400 µL of each microorganism at a concentration of 10^5 was inoculated into each well. The multiwell plates were incubated at 37°C for 24 hours and then the supernatant present was removed, together with the planktonic bacteria not attached to the plate.
(§14) The biofilm was then washed 3 times with sterile deionised water and subsequently the cells were fixed by means of incubation at 60°C for 2 hours, before being stained with crystal violet. The crystal violet staining was performed to assess the effect of the product and the components thereof on the biofilm formation. 200 µL of 0.02% crystal violet dissolve in deionised water was dispensed into each well and, after 5 minutes of incubation at room temperature, each well was finally washed three times with sterile deionised water. The biofilm inhibition activity was viewed by microscopic observation under stereomicroscope.
(§15) At the end of the microscopic observation of the condition of the biofilm by staining, the stain fixed to the biofilm treated was extracted utilising 100% methanol for 5 minutes at room temperature. The methanolic extract thus obtained was analysed under spectrophotometer to measure the absorbency at 595 nm. As the solution stain intensity obtained is proportional to the biofilm remaining, absorbency is a quantitative parameter which can be used to measure the amount of biofilm. Absorbency was therefore utilised to determine the biofilm decrease percentage by comparing the data obtained following treatments against the untreated biofilm control.

[7] = system: Klebsiella Pneumoniae DSM 30104; assay: as above; format: cell-based; conditions: MBIC K. pneumoniae
Procedure: as §9, §10, §11, §12, §13, §14, §15

O=C[C@@H](O)[C@@H](O)[C@H](O)[C@H](O)CO [D-mannose]
antimicrobial activity [1]: did not demonstrate any antimicrobial activity
antimicrobial activity [2]: did not demonstrate any antimicrobial activity
concentration of the mannose alone needed for the same efficaciousness as Comp. 1 (Escherichia coli; E. coli biofilm): approximately 2.5 times
concentration active on biofilm formation (Escherichia coli; E. coli, 24 h): 32.5 g/L
concentration of the mannose alone needed for the same efficaciousness as Comp. 1 (Klebsiella pneumoniae; K pneumoniae biofilm): approximately 10 times
concentration active on biofilm formation (Klebsiella pneumoniae; K. pneumoniae, 24 h): 8.13 g/L
concentration of the mannose alone needed for the same efficaciousness as Comp. 1 (Enterococcus faecium [3]; E. faecium biofilm): approximately 10 times
concentration with evident activity on the biofilm (Enterococcus faecium [3]; E. faecium, 24 h): 65 g/L
antimicrobial activity (Enterococcus faecium [4]): did not demonstrate any antimicrobial activity

C[C@@H]1C[C@H]2[C@@H]3CCC4=CC(=O)C=C[C@]4(C)[C@@]3(F)[C@@H](O)C[C@]2(C)[C@@]1(O)C(=O)CO [Dex, dexamethasone]
concentration of IL-8 with respect to the cells treated solely with TNFα (IL-8; Dex 0.1 mg/mL, TNFα alone = 100): 69%
IL-8 produced less than that produced by the cells treated solely with TNFα (IL-8; Dexamethasone 0.1 mg/mL): 31%

CCCCCCCCCCCCCCCC(=O)NCCO [PEA, palmitoylethanolamide]
Abs 595 nm (Enterococcus faecium [5]; 24 h biofilm, 24 h treatment, untreated biofilm 2.09): 2.098
% decrease (Enterococcus faecium [5]; treated versus untreated biofilm): 0%
Abs 595 nm ([6]; 3.13 g/L product of Example 1, components at the same concentration as in the composition, untreated biofilm 0.318): 0.304
% decrease ([6]; treated versus untreated biofilm, 3.13 g/L product of Example 1): 4%
Abs 595 nm ([7]; 1.56 g/L product of Example 1, components at the same concentration as in the composition, untreated biofilm 0.176): 0.129
% decrease ([7]; treated versus untreated biofilm, 1.56 g/L product of Example 1): 26.70%

— EP4380555B1, “COMPOSITION COMPRISING D-MANNOSE, N-ACETYLCYSTEINE AND PALMITOYLETHANOLAMIDE AND ITS USE FOR THE TREATMENT OF URIRNARY TRACT INFECTIONS” (Agave S.r.l., priority 2021, dated 2023)
